Laboratory results published in US12325725B2, “Cyclin-dependent kinase degraders and methods of use” (DANA-FARBER CANCER INSTITUTE, INC., priority 2018, dated 2025).

Molecular target: T1, CDK8 (Homo sapiens (Human), UniProt P49336)
Test: not given
Conditions: cited from earlier work
Target sequence in this assay (P49336 whole entry, looked up, species assumed): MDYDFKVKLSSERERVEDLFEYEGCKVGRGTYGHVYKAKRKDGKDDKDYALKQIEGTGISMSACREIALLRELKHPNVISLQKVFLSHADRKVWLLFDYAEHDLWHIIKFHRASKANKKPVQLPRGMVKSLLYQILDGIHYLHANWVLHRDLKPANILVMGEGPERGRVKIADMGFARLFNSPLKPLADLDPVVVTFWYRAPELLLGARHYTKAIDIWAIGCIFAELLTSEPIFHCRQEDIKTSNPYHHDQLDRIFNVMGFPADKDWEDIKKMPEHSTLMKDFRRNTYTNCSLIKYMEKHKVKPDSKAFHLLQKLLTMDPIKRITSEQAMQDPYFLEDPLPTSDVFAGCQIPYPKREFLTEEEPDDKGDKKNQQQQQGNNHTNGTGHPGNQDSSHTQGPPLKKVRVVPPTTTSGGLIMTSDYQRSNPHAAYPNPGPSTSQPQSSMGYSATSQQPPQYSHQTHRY
Target sequence in this assay (P24863 whole entry partner, looked up, species assumed): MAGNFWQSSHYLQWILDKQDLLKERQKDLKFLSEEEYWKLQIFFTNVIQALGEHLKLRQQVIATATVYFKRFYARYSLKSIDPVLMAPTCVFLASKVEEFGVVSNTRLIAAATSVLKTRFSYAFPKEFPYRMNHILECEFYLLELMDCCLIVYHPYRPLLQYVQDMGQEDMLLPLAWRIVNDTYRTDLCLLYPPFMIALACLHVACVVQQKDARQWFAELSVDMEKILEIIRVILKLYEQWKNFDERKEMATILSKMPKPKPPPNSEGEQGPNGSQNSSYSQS

Row | SMILES | IC50 [nM]
1 | CN(C)[C@H]1C[C@@]23CC[C@@]4(O2)C(=CC[C@]2(C)C(c5ccc6ccncc6c5)=CC[C@H]24)C=C3[C@@H](O)[C@@H]1O [DCA, dehydrocortistatin A, reference compound] | 17

Molecular target: T1, CDK8
Test: LanthaScreen Eu Kinase Binding Assay (competitive kinase binding assay)
Conditions: Targeting Ligands of Table 1; displacing the Tracer from the target kinase; read-out: Enzyme IC50
Experimental: The biological activities of the compounds of the present application can be assessed through a variety of methods known in the art. For example, a kinase competitive binding assay may be used to determine the activity of the compounds of the present application to bind to […]. […] The changes in the signal produced by the reporting ligand when the compound is present relative when the compound is absent are recorded, which are calculated to provide the IC50 of the compound. Compounds of the present application were tested in a competitive kinase binding assay by using commercially available assay system. For example, LanthaScreen® Eu Kinase Binding Assay (Invitrogen™) was used to measure the IC50 of the compounds of the present application in displacing the Tracer from binding to the target kinase, by following the assay protocol from Invitrogen™.
Target sequence in this assay (P49336 whole entry, looked up): as the sequence (P49336 whole entry, looked up, species assumed) above
Target sequence in this assay (P24863 whole entry partner, looked up): as the sequence (P24863 whole entry partner, looked up, species assumed) above

Row | SMILES | IC50 [nM]
2 | CN(C)[C@H]1CC[C@@]2(C)C(=CCC3[C@@H]4CC[C@H](c5ccc6ccncc6c5)[C@@]4(C)CC[C@@H]32)C1 (stereo in doubt) [Compound 33, (3S,8R,9S,10R,13S,14S)-17-(isoquinolin-7-yl)-N,N,10,13-tetramethyl-2,3,4,7,8,9,10,11,12,13,14,15,16,17-tetradecahydro-1H-cyclopenta[a]phenanthren-3-amine] | < 100
3 | C[C@]12CC[C@H](O)CC1=CC[C@@H]1[C@@H]2CC[C@]2(C)C(c3ccc4ccncc4c3)=CC[C@@H]12 [Compound 1, (3S,8R,9S,10R,13S,14S)-17-(isoquinolin-7-yl)-10,13-dimethyl-2,3,4,7,8,9,10,11,12,13,14,15-dodecahydro-1H-cyclopenta[a]phenanthren-3-ol] | 101 to 200
4 | C[C@]12CC[C@H](O)C[C@@H]1CC[C@@H]1[C@@H]2CC[C@]2(C)C(c3ccc4ccncc4c3)=CC[C@@H]12 [Compound 2] | 701 to 2000
5 | C[C@]12CC[C@H](O)CC1=CC[C@@H]1[C@@H]2CC[C@]2(C)C(c3ccc4cnncc4c3)=CC[C@@H]12 [Compound 3] | > 6000
6 | C[C@]12CC[C@H](O)CC1=CC[C@@H]1[C@@H]2CC[C@]2(C)C(c3ccc4nc(N)ncc4c3)=CC[C@@H]12 [Compound 4] | 2000 to 6000
7 | C[C@]12CC[C@H](O)CC1=CC[C@@H]1[C@@H]2CC[C@]2(C)C(c3ccc4[nH]ncc4c3)=CC[C@@H]12 [Compound 6] | > 6000
8 | C[C@]12CC[C@H](O)CC1=CC[C@@H]1[C@@H]2CC[C@]2(C)C(c3ccc4cn[nH]c4c3)=CC[C@@H]12 [Compound 7] | > 6000
9 | C[C@]12CC[C@H]3[C@@H](CC=C4C[C@@H](O)CC[C@@]43C)[C@@H]1CC[C@@H]2c1ccc2ccncc2c1 [Compound 8a, (3S,8S,9S,10R,13S,14S,17S)-17-(isoquinolin-7-yl)-10,13-dimethyl-2,3,4,7,8,9,10,11,12,13,14,15,16,17-tetradecahydro-1H-cyclopenta[a]phenanthren-3-ol] | < 100
10 | C[C@]12CC[C@H](O)C[C@@H]1CC[C@@H]1[C@@H]2CC[C@]2(C)[C@@H](c3ccc4ccncc4c3)CC[C@@H]12 [Compound 8b] | 201 to 300
11 | C[C@]12CC[C@H]3[C@@H](CC=C4C[C@@H](O)CC[C@@]43C)[C@@H]1CC[C@@H]2c1ccc2cnncc2c1 [Compound 9] | > 6000
12 | C[C@]12CC[C@H]3[C@@H](CC=C4C[C@@H](O)CC[C@@]43C)[C@@H]1CC[C@@H]2c1ccc2nc(N)ncc2c1 [Compound 10] | 101 to 200
13 | C[C@]12CC[C@H]3[C@@H](CC=C4C[C@@H](O)CC[C@@]43C)[C@@H]1CC[C@@H]2c1ccc2c(N)n[nH]c2c1 [Compound 11] | 301 to 700
14 | C[C@]12CC[C@H]3[C@@H](CC=C4C[C@@H](O)CC[C@@]43C)[C@@H]1CC[C@@H]2c1ccc2[nH]ncc2c1 [Compound 12] | > 6000
15 | C[C@]12CC[C@H]3[C@@H](CC=C4C[C@@H](O)CC[C@@]43C)[C@@H]1CC[C@@H]2c1ccc2cn[nH]c2c1 [Compound 13] | > 6000
16 | C[C@]12CC[C@H]3[C@@H](CC=C4C[C@@H](O)CC[C@@]43C)[C@@H]1CC[C@@H]2c1ccc2cnccc2c1 [Compound 14] | 2000 to 6000
17 | CN(C)[C@H]1CC[C@@]2(C)[C@@H](CC[C@@H]3[C@@H]2CC[C@]2(C)[C@@H](c4ccc5ccncc5c4)CC[C@@H]32)C1 [Compound 23, (3S,8R,9S,10S,13S,14S,17S)-(isoquinolin-7-yl)-N,N,10,13-tetramethylhexadecahydro-1H-cyclopenta[a]phenanthren-3-amine] | < 100
18 | CN(C)[C@@H]1CC[C@@]2(C)[C@@H](CC[C@@H]3[C@@H]2CC[C@]2(C)C(c4ccc5ccncc5c4)=CC[C@@H]32)C1 [Compound 24] | 201 to 300
19 | CN(C)[C@@H]1CC[C@@]2(C)[C@@H](CC[C@@H]3[C@@H]2CC[C@]2(C)[C@@H](c4ccc5ccncc5c4)CC[C@@H]32)C1 [Compound 25] | < 100
20 | C[C@]12CC[C@H](n3ccnn3)C[C@@H]1CC[C@@H]1[C@@H]2CC[C@]2(C)[C@@H](c3ccc4ccncc4c3)CC[C@@H]12 [Compound 39, 7-((3S,8R,9S,10S,13S,14S,17S)-10,13-dimethyl-3-(1H-1,2,3-triazol-1-yl)hexadecahydro-1H-cyclopenta[a]phenanthren-17-yl)isoquinoline] | < 100
21 | CC(=O)N(C)[C@H]1CC[C@@]2(C)[C@@H](CC[C@@H]3[C@@H]2CC[C@]2(C)[C@@H](c4ccc5ccncc5c4)CC[C@@H]32)C1 [Compound 47, N-((3S,8R,10S,13S,14S,17S)-17-(isoquinolin-7-yl)-10,13-dimethylhexadecahydro-1H-cyclopenta[a]phenanthren-3-yl)-N-methylacetamide] | < 100

Same assay, conditions: bifunctional compounds; displacing the Tracer from the target kinase; read-out: Enzyme IC50

Row | SMILES | IC50 [nM]
22 | CN(C(=O)CCOCCOCCOCCOCCNc1cccc2c1C(=O)N(C1CCC(=O)NC1=O)C2=O)[C@H]1CC[C@]2(C)C3CC[C@]4(C)[C@@H](c5ccc6ccncc6c5)CC[C@H]4C3CC[C@H]2C1 (stereo partly drawn) [Compound I-1, 1-((2-(2,6-dioxopiperidin-3-yl)-1,3-dioxoisoindolin-4-yl)amino)-N-((3S,5S,1&S,13S,14S,17S)-17-(isoquinolin-7-yl)-10,13-dimethylhexadecahydro-1H-cyclopenta[a]phenanthren-3-yl)-N-methyl-3,6,9,12-tetraoxapentadecan-15-amide] | 101 to 200
23 | CN(C(=O)CCOCCOCCNc1cccc2c1C(=O)N(C1CCC(=O)NC1=O)C2=O)[C@H]1CC[C@]2(C)C3CC[C@]4(C)[C@@H](c5ccc6ccncc6c5)CC[C@H]4C3CC[C@H]2C1 (stereo partly drawn) [Compound I-2, 3-(2-(2-((2-(2,6-dioxopiperidin-3-yl)-1,3-dioxoisoindolin-4-yl)amino)ethoxy)ethoxy)-N-((3S,10S,17S)-17-(isoquinolin-7-yl)-10,13-dimethylhexadecahydro-1H-cyclopenta[a]phenanthren-3-yl)-N-methylpropanamide] | 101 to 200
24 | CN(C(=O)CCOCCOCCNc1cccc2c1C(=O)N(C1CCC(=O)NC1=O)C2=O)[C@H]1CC[C@@]2(C)C(CCC3C4CC[C@H](c5ccc6ccncc6c5)C4(C)CCC32)C1 (stereo partly drawn) [Compound I-3, 3-(2-(2-((2-(2,6-dioxopiperidin-3-yl)-1,3-dioxoisoindolin-4-yl)amino)ethoxy)ethoxy)-N-((3S,10S,17S)-17-(isoquinolin-7-yl)-10,13-dimethylhexadecahydro-1H-cyclopenta[a]phenanthren-3-yl)-N-methylpropanamide] | 201 to 300
25 | CN1C(=O)CCC(N2C(=O)c3cccc(NCCOCCOCCOCCOCCC(=O)N(C)[C@H]4CC[C@]5(C)C6CC[C@]7(C)[C@@H](c8ccc9ccncc9c8)CC[C@H]7C6CC[C@H]5C4)c3C2=O)C1=O (stereo partly drawn) [Compound I-5, N-((3S,5S,10S,13S,14S,17S)-17-(isoquinolin-7-yl)-10,13-dimethylhexadecahydro-1H-cyclopenta[a]phenanthren-3-yl)-N-methyl--((2-(1-methyl-2,6-dioxopiperidin-3-yl)-1,3-dioxoisoindolin-4-yl)amino)-3,6,9,12-tetraoxapentadecan-15-amide] | 301 to 700

Test system: pS727-STAT1 (CDK8 substrate) in HepG2 cells
Test: Western blot of S727-STAT1 phosphorylation in IFNγ-treated HepG2 cells
Assay type: cell-based
Conditions: 18 h with IFNγ, Compound 33 at 0.5, 1, 5 μM, DCA at 0.1, 1 μM
Experimental: FIG. 4 is a western blot illustrating inhibition of phosphorylation of S727-STAT1, a known CDK8 substrate, to form pS727-STAT1. pS727-STAT1 and total STAT1 were from HepG2 cells independently treated for 18 h with interferon gamma (IFNγ) and 0.5 μM, 1 μM, or 5 μM Compound 33, or with IFNγ and 0.1 μM or 1 μM dehydrocortistatin A (“DCA”).

Row | SMILES | inhibition of S727 phosphorylation (pS727-STAT1 vs total STAT1, western blot)
26 | CN(C)[C@H]1CC[C@@]2(C)C(=CCC3[C@@H]4CC[C@H](c5ccc6ccncc6c5)[C@@]4(C)CC[C@@H]32)C1 (stereo in doubt) [Compound 33, (3S,8R,9S,10R,13S,14S)-17-(isoquinolin-7-yl)-N,N,10,13-tetramethyl-2,3,4,7,8,9,10,11,12,13,14,15,16,17-tetradecahydro-1H-cyclopenta[a]phenanthren-3-amine] | dose-dependent inhibition
27 | CN(C)[C@H]1C[C@@]23CC[C@@]4(O2)C(=CC[C@]2(C)C(c5ccc6ccncc6c5)=CC[C@H]24)C=C3[C@@H](O)[C@@H]1O [DCA, dehydrocortistatin A, reference compound] | dose-dependent inhibition
